What was measured:
[1] = Antiproliferative activity against human Hep2 cells; type: functional, cell-based; details: HEp-2
HepG2 = experiment: Antiproliferative activity against human HepG2 cells; type: functional, cell-based

IC50 (HepG2): 85 µM
Compound: Oc1ccc2[nH]cc(-c3cnc(-c4c[nH]c5ccc(O)cc45)cn3)c2c1
IC50 [1]: 151 µM
